Assay results published in patent US20260335323A1, “CHIMERIC MOLECULE” (UCL Business Ltd, priority 2023, published 2026).

Molecular target: T1, ULK1 (Homo sapiens, UniProt O75385)
T1 sequence (O75385 1-1050): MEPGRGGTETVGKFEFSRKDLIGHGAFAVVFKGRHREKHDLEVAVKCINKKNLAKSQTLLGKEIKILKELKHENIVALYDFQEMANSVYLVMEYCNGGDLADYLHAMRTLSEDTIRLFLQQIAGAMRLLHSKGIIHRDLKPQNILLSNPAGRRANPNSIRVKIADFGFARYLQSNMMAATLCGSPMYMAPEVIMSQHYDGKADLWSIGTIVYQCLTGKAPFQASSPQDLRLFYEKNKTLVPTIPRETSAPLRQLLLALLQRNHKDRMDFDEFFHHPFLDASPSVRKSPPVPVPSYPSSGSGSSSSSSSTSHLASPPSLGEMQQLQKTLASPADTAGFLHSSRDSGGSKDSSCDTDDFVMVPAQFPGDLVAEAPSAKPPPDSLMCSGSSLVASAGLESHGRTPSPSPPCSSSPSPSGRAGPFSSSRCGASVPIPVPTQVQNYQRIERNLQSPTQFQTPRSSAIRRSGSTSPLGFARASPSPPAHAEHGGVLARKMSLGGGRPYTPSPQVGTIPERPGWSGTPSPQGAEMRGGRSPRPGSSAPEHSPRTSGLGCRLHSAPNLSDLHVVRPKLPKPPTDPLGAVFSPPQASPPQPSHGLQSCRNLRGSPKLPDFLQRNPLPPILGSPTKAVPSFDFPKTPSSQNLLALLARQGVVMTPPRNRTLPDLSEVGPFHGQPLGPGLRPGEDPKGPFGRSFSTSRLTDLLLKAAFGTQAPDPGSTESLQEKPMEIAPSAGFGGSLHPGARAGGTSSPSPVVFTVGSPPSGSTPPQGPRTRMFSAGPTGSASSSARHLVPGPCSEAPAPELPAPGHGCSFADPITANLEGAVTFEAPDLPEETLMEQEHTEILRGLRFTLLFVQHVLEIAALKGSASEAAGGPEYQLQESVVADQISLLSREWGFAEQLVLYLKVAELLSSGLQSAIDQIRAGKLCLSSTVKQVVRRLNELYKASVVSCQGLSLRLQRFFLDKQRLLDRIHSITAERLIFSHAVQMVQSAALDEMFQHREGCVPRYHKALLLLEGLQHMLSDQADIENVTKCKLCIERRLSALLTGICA
Test: ULK1/TOM20 co-localisation immunofluorescence in PANC-1 cells
Type: cell-based
Design: pSer317 blot or TOM20 co-localisation
Procedure: FIG. 5. ULKTACs induce potent mitophagy after colocalisation and local activation of ULK1 at mitochondria (A) Representative immunofluorescence of PANC-1 cells treated with CCCP, ULKTACs or both and immunostained for TOM20 and ULK1 and counterstained with Alexa 488 and 568, respectively. Nuclei stained with Hoechst 33342. (B) Quantification of the colocalised ULK1 to TOM20 spot area of PANC-1 cells treated with DMSO, 5 mM CCCP, 10 mM BL-918, 10 mM BL-918+5 mM CCCP, […] NZ-65, […] NZ-65+5 mM CCCP, […] NZ-66, […] NZ-66+5 mM CCCP, 50 mM TSPO ligand, […] NZ-65+50 mM TSPO ligand, […] NZ-66+50 mM TSPO ligand. (C) Western blot of SH-SY5Y cells treated with 1 mM ULKTACs, 5 mM CCCP or both, probed for Mfn2, b-Actin and Tom20—quantifications are shown in (D) for Mfn2, normalised to Actin. (E) Representative images of SH-SY5Y cells stably expressing the mito-mKeima reporter treated with 3 mM CCCP, NZ-65 or both. Nuclei were stained with Hoechst 33342, healthy mitochondria are shown in green and mitochondria in lysosomes are shown in red. Fold change in mitophagy index over time after treatment for the indicated timepoints with title treatments alone or co-treated with 1.25 mM ULKTAC or 10 mM ULKTAC NZ-65 (F) or NZ-66 (G). Fold change in mitophagy index over time after treatment for the indicated timepoints with DMSO, 1.25 µM NZ-65 or NZ-66±50 µM TSPO ligand under co-treatment with DMSO (H) or 3 μM CCCP (I). […] Normalised to number of nuclei. All data shown are mean±SEM, n=3, *p<0.05, ** p<0.01, *** p<0.001. For colocalisation and TMRM experiments, one-way ANOVA with Dunnett's multiple comparisons test. For western blots, one-way ANOVA with Tukey's multiple comparisons test and unpaired t-test. For mito-mKeima experiment, two-way ANOVA with Tukey's multiple comparisons test.
For TOM20/ULK1 immunofluorescence, cells were seeded in a 384 well PerkinElmer CellCarrier Ultra plate 24 hours prior to treatment with compounds. Cells were treated for 18 hours after which they were fixed with 4% paraformaldehyde (PFA) in phosphate buffered saline (PBS) and blocked with 10% FBS and 0.1% Triton in PBS. Plates were incubated at 4° C. overnight, with 1:400 mouse anti-TOM20 (Santa Cruz, #sc-17764) and 1:400 rabbit anti-ULK1 (Cell Signalling Technologies, #0854). The following day, plates were incubated with 1:1000 goat anti-mouse Alexa 488 (ThermoFisher Scientific, #A-11029), 1:1000 goat anti-rabbit Alexa 568 (ThermoFisher Scientific, #A-11011) and 1.62 μM Hoechst 33342 at room temperature for 1 hour before imaging. For ATP5a/LC3 immunofluorescence, cells were fixed with ice-cold 1:1 MeOH: acetone and blocked with 3% BSA (Sigma-Aldrich, #A3803) in Dulbecco's PBS (D-PBS). Plates were incubated overnight at 4° C. with 1:400 LC3B (D11) XP Rabbit mAb Alexa Fluor 647 Conjugate (Cell Signalling Technologies, #65299) and 1:400 ATP5a (Cell Signalling Technologies, #18023) lightning-linked to Alexa Fluor 488. The following day, plates were incubated with 1.62 […] at room temperature for 1 hour before imaging. Excitation and emission spectra for each channel are as follows: Hoechst 33342=405/435-480 nm, Alexa 488=488/500-550 nm and Alexa 568=561/570-630 nm. Images were acquired at 40× and 63× magnification with water immersion lens.
To understand the temporal kinetics of NZ-65 and NZ-66, we assessed the recruitment of ULK1 to mitochondria, using co-localisation of ULK1 and TOM20 by immunofluorescence. […] After showing the co-localisation of ULK1 to the outer mitochondrial membrane (OMM) after ULKTAC treatment, we wanted to determine whether the ULKTACs induced mitophagy. To do this, we measured changes in Mfn2 under basal conditions and co-treatment with CCCP (FIG. 5C, D).

| co-localisation of ULK1 and TOM20 (PANC-1, CCCP co-treatment) | Compound | co-localisation of ULK1 and TOM20 (PANC-1, 18 hours, alone) |
| --- | --- | --- |
| enhanced by CCCP co-treatment | O=C(Nc1cc(C(F)(F)F)cc(C(F)(F)F)c1)N[C@@H](C(=O)Nc1ccc(F)cc1F)c1ccc(OCc2cn(CCCCCCNC(=O)C(=O)c3c(-c4ccccc4)[nH]c4ccccc34)nn2)cc1 [NZ-66, (R)-2-(3-(3,5-bis(trifluoromethyl)phenyl)ureido)-N-(2,4-difluorophenyl)-2-(4-((1-(6-(2-oxo-2-(2-phenyl-1H-indol-3-yl)acetamido)hexyl)-1H-1,2,3-triazol-4-yl)methoxy)phenyl) acetamide] | increased co-localisation of ULK1 and TOM20 |
|  | O=C(Nc1ccc(F)cc1F)[C@H](NC(=S)Nc1cc(C(F)(F)F)cc(C(F)(F)F)c1)c1ccccc1 [BL-918, reference compound] | neither BL-918 nor the TSPO ligand alone induce co-localisation |
| enhanced by CCCP co-treatment | O=C(Nc1cc(C(F)(F)F)cc(C(F)(F)F)c1)N[C@@H](C(=O)Nc1ccc(F)cc1F)c1ccc(OCc2cn(CCOCCOCCNC(=O)C(=O)c3c(-c4ccccc4)[nH]c4ccccc34)nn2)cc1 [NZ-65, (R)-2-(3-(3,5-bis(trifluoromethyl)phenyl)ureido)-N-(2,4-difluorophenyl)-2-(4-((1-(2-(2-(2-(2-oxo-2-(2-phenyl-1H-indol-3-yl)acetamido)ethoxy)ethoxy)ethyl)-1H-1,2,3-triazol-4-yl)methoxy)phenyl) acetamide] | increased co-localisation of ULK1 and TOM20 |
